Source: publication PMC5737116, “Biochemical Properties of Human D-Amino Acid Oxidase” (Frontiers in Molecular Biosciences, 2017)
Entries after “also recorded” stand apart in the source; their conditions may differ. Where two headings read alike, the source gives them in different places. Blank lines part the entries; values can stand above or below the compound they belong to.

Experiments:
hDAAO holoenzyme [1] = biological target: T1, hDAAO holoenzyme (Homo sapiens, UniProt P14920); assay: Ligand binding to hDAAO, protein fluorescence quenching; conditions: for Kd: 15°C
T1 construct: made in house; host or cells: E. coli
T1 sequence (P14920 whole entry): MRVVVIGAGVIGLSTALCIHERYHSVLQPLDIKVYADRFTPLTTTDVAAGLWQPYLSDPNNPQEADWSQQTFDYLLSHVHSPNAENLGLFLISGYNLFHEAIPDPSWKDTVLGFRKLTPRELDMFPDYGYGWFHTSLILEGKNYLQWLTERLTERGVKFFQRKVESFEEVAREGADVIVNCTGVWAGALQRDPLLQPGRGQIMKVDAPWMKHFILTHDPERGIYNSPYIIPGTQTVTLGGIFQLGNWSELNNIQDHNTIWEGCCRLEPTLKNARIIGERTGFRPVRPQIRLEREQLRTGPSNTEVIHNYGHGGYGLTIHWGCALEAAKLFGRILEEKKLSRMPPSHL

hDAAO [2] = biological target: T2, hDAAO (Homo sapiens, UniProt P14920); assay: Modulation of hDAAO activity, standard activity assay; assay type: biochemical; conditions: for effect on hDAAO activity on D-alanine: D-alanine 2 or 28 mM, simultaneous 10 mM magnesium ions and 10 μM nucleotide
T2 construct: made in house; host or cells: E. coli
T2 sequence (P14920 whole entry): as above
Protocol: The effect of MgCl2 and CaCl2 (1 or 10 mM), of 10 μM ATP or GTP and of both divalent ions and nucleotides was assessed using the standard activity assay.

hDAAO [3] = biological target: T2, hDAAO; assay: Oxygen-consumption activity assay, apparent kinetic parameters (substrate specificity); assay type: biochemical; conditions: for kcat / Km: apparent, 21% oxygen saturation, pH 8.5, 25°C; for oxidation by hDAAO: at 100 and 500 mM final concentration
hDAAO [4] = biological target: T2, hDAAO; conditions: cited from earlier work
hDAAO apoprotein [5] = biological target: T3, hDAAO apoprotein (Homo sapiens, UniProt P14920); assay: FAD binding to hDAAO apoprotein, protein fluorescence quenching; conditions: 15°C
T3 construct: made in house; host or cells: E. coli
T3 sequence (P14920 whole entry): as above
Protocol: Protein fluorescence spectra were measured at 1 μM protein concentration (0.04 mg/mL) in 20 mM Tris-HCl buffer, pH 8.0, 100 mM NaCl, 10% (v/v) glycerol, 5 mM 2-mercaptoethanol, and 40 μM FAD for the holoenzyme and in 50 mM sodium pyrophosphate, pH 8.3 for the apoprotein; spectra were recorded using a Jasco FP-750 instrument and were corrected for the buffer contribution. Protein fluorescence spectra were recorded between 300 and 400 nm, with excitation at 280 nm. […] In all cases, Kd-values were determined using an hyperbolic plot.

hDAAO apoprotein [6] = biological target: T3, hDAAO apoprotein; assay: Holoenzyme reconstitution, decrease in flavin fluorescence at 528 nm; assay type: binding
Protocol: The holoenzyme reconstitution process was also investigated by adding increasing concentrations of apoprotein to ~1 μM of FAD and following the decrease in flavin fluorescence at 528 nm (excitation at 450 nm).

hDAAO apoprotein [7] = biological target: T3, hDAAO apoprotein; conditions: cited from earlier work
hDAAO [8] = biological target: T2, hDAAO; assay: Inhibition of D-serine oxidation by L-serine; assay type: biochemical
hDAAO [9] = biological target: T2, hDAAO; assay: Reduction of FAD following anaerobic addition of L-amino acid; assay type: biochemical
Protocol: The ability of L-serine to bind at the hDAAO active site like the corresponding D-enantiomer is further confirmed by the observed reduction of FAD following anaerobic addition of the L-amino acid: 14 μM of hDAAO was reduced by 1 mM L-serine in >60 min.

hDAAO [10] = biological target: T2, hDAAO; conditions: following enzyme inactivation; ref Kawazoe et al., 2006; cited from earlier work
hDAAO [11] = biological target: T2, hDAAO; conditions: cited from earlier work; remark: listed apart in the source
hDAAO holoenzyme [12] = biological target: T1, hDAAO holoenzyme; assay: Far-UV CD spectrum of hDAAO in the presence of ions and nucleotides; conditions: 1 or 10 mM
Protocol: Circular dichroism (CD) spectra were recorded using a Jasco J-815 spectropolarimeter (Jasco Co., Cremella, Italy) in 10 mM Tris-HCl, pH 8.0, 1% (v/v) glycerol, and 40 μM FAD. The cell path length was 0.1 cm for measurements in the 200- to 250-nm region (0.1 mg protein/mL) and 1 cm for measurements in the 250–350 nm range (0.4 mg protein/mL) (Caldinelli et al., [2010]).

[13] = apparent, 21% oxygen saturation, pH 8.5, 25°C, ref Molla et al., 2006
[14] = value in brackets, ref Raibekas et al., 2000
[15] = at pH 8.3, ref Kawazoe et al., 2007b
[16] = apparent, 21% oxygen saturation, pH 8.5, 25°C, ref Frattini et al., 2011

Compound: Nc1ncnc2c1ncn2[C@@H]1O[C@H](COP(=O)(O)OP(=O)(O)OP(=O)(O)O)[C@@H](O)[C@H]1O [ATP]
- change in protein fluorescence (hDAAO holoenzyme [1]; up to 20 mM): no change
- effect on hDAAO activity on D-alanine (hDAAO [2]): not modified

- specific activity (hDAAO [3]; saturating D-alanine concentration (28 mM), 25°C, pH 8.5, 200 μM FAD): 9.5 U/mg protein
Compound: C[C@@H](N)C(=O)O [D-Alanine]
- Km (hDAAO [4]; [13]): 1300 ± 200 µM
- kcat (hDAAO [4]; [13]): 5.2 ± 0.1 s⁻¹
- Km (hDAAO [4]; [14]): 1000 µM
- kcat (hDAAO [4]; [14]): 10 s⁻¹

Compound: N[C@H](CC(=O)O)C(=O)O [D-Aspartate]
- kcat (hDAAO [4]; [13]): 6.7 ± 1.2 s⁻¹
- kcat (hDAAO [4]; apparent, 21% oxygen saturation, pH 8.5, 25°C, ref Molla et al., 2006, listed as D-aspartate): 6.7 s⁻¹

Compound: N[C@H](Cc1ccc(O)c(O)c1)C(=O)O [D-DOPA, 3,4-dihydroxyphenylalanine]
- Ki (hDAAO [3]): 41300 µM
- kcat (hDAAO [3]): ~ 40 s^−1
- Km (hDAAO [3]; read-out: Km): 6000 ± 1300 µM
- Km (hDAAO [4]; [15]): 1500 µM
- kcat (hDAAO [4]; [15]): 21.7 s⁻¹
- Ki (hDAAO [4]; substrate inhibition effect, at pH 8.3, ref Kawazoe et al., 2007b): 500 µM

Compound: N[C@H](CCC(=O)O)C(=O)O [D-Glutamate]
- Km (hDAAO [3]): b. d.
- kcat (hDAAO [3]): b. d.
- oxidation by hDAAO (hDAAO [3]): not oxidized
- change in protein fluorescence (hDAAO holoenzyme [1]; up to 50 mM): no change

- kcat (hDAAO [3]): 0.09 ± 0.01 s⁻¹
- Km (hDAAO [3]; read-out: Km): 700 ± 400 µM
Compound: Nc1ccccc1C(=O)C[C@@H](N)C(=O)O [D-Kynurenine]

Compound: N[C@H](Cc1ccccc1)C(=O)O [D-Phenylalanine]
- Km (hDAAO [4]; [16]): 2700 ± 200 µM
- kcat (hDAAO [4]; [16]): 6.6 ± 0.1 s⁻¹
- Km (hDAAO [4]; [15]): 1200 µM
- kcat (hDAAO [4]; [15]): 15.5 s⁻¹

Compound: O=C(O)[C@H]1CCCN1 [D-Proline]
- Km (hDAAO [4]; [13]): 8500 ± 1000 µM
- kcat (hDAAO [4]; [13]): 10.2 ± 0.1 s⁻¹

Compound: N[C@H](CO)C(=O)O [D-Serine]
- Km (hDAAO [4]; [13]): 7500 ± 500 µM
- kcat (hDAAO [4]; [13]): 3.0 ± 0.1 s⁻¹
- Km (hDAAO [4]; [15]): 3900 µM
- kcat (hDAAO [4]; [15]): 4 s⁻¹
- Km (hDAAO [4]; [14]): 1000 µM

Compound: N[C@H](Cc1c[nH]c2ccccc12)C(=O)O [D-Tryptophan]
- Km (hDAAO [4]; [16]): 1500 ± 100 µM
- kcat (hDAAO [4]; [16]): 3.2 ± 0.1 s⁻¹

Compound: N[C@H](Cc1ccc(O)cc1)C(=O)O [D-Tyrosine]
- Km (hDAAO [4]; [15]): 1100 µM
- kcat (hDAAO [4]; [15]): 14.8 s⁻¹

- Kd (hDAAO apoprotein [5]; 7 μM benzoate, read-out: Kd, first phase): 0.43 ± 0.02 µM
- Kd (hDAAO apoprotein [5]; 7 μM benzoate, read-out: Kd, second phase): 19.1 ± 2.8 µM
- Kd (hDAAO apoprotein [5]; 70 μM benzoate, read-out: Kd, single saturation): 0.48 ± 0.02 µM
- Kd (hDAAO apoprotein [5]; absence of active-site ligand, read-out: Kd, first phase): 0.43 ± 0.02 µM
- Kd (hDAAO apoprotein [5]; absence of active-site ligand, read-out: Kd, second phase): > 30 µM
- Kd (hDAAO apoprotein [6]; 70 μM benzoate, monophasic, read-out: Kd): 0.4 ± 0.04 µM
- Kd (hDAAO apoprotein [6]; absence of benzoate, ~1 μM FAD titrated with apoprotein, read-out: Kd, 1): 0.67 ± 0.07 µM
- Kd (hDAAO apoprotein [6]; absence of benzoate, ~1 μM FAD titrated with apoprotein, read-out: Kd, 2): 4 ± 0.9 µM
Compound: Cc1cc2nc3c(=O)[nH]c(=O)nc-3n(C[C@H](O)[C@H](O)[C@H](O)COP(=O)(O)OP(=O)(O)OC[C@H]3O[C@@H](n4cnc5c(N)ncnc54)[C@H](O)[C@@H]3O)c2cc1C [FAD]
- fold tighter interaction with FAD in the presence of an active site ligand (hDAAO apoprotein [7]; active site ligand such as benzoate, ref Molla et al., 2006): 20 fold
- Kd (hDAAO apoprotein [7]; benzoate binding, ref Molla et al., 2006, Caldinelli et al., 2010, read-out: Kd, flavin interaction with benzoate bound): 0.3 µM
- Kd (hDAAO apoprotein [7]; interaction with the flavin cofactor, ref Molla et al., 2006, read-out: Kd): 8 µM

- effect on hDAAO activity on D-alanine (hDAAO [2]): not modified
Compound: Nc1nc2c(ncn2[C@@H]2O[C@H](COP(=O)(O)OP(=O)(O)OP(=O)(O)O)[C@@H](O)[C@H]2O)c(=O)[nH]1 [GTP]

- apparent Km, fold higher than physiological concentration (hDAAO [3]): ~ 1,000 fold
- change in protein fluorescence (hDAAO holoenzyme [1]; up to 50 mM): no change
Compound: NCC(=O)O [Glycine]
- kcat (hDAAO [4]; [13]): ~ 0.9 s^−1

Compound: CC(=O)N[C@@H](CS)C(=O)O [L-NAC, N-acetyl-L-cysteine]
- effect on hDAAO activity (hDAAO [2]; 1 or 10 mM, even when added 60 min before the assay): does not affect; also recorded: not altered

- type of inhibition (hDAAO [8]; D-serine oxidation at increasing L-serine concentrations): competitive inhibitor
- Ki (hDAAO [8]; competitive versus D-serine): 26200 µM
- time for reduction of hDAAO flavin (hDAAO [9]; 14 μM hDAAO, 1 mM L-amino acid, anaerobic): > 60 min
Compound: N[C@@H](CO)C(=O)O [L-serine]

- Km (hDAAO [3]): b. d.
- kcat (hDAAO [3]): b. d.
- oxidation by hDAAO (hDAAO [3]): not oxidized
- change in protein fluorescence (hDAAO holoenzyme [1]; up to 50 mM): no change
- reduction of FAD following anaerobic addition (hDAAO [9]; compared with L-serine, not shown): not
Compound: CN[C@H](CC(=O)O)C(=O)O [N-Methyl-D-aspartate]

- Kd (hDAAO holoenzyme [1]; higher ligand concentrations, ~80% of fluorescence change, read-out: Kd, second saturation): 2590 ± 680 µM
- Kd (hDAAO holoenzyme [1]; low benzoate concentrations (≤ 20 μM), read-out: Kd, first saturation): 0.33 ± 0.04 µM
Compound: O=C(O)c1ccccc1 [benzoate]
- Ki (hDAAO [10]): 7 µM
- Kd (hDAAO [11]; CD signal at ~270 nm, ref Caldinelli et al., 2010): 9.5 µM
- Kd (hDAAO [11]; formation of a shoulder at 484 nm in the absorbance spectrum, ref Raibekas et al., 2000, Molla et al., 2006): 5 to 7 µM

- effect on far-UV CD spectrum / protein conformation (hDAAO holoenzyme [12]): slightly modified
Compound: [Ca+2] [calcium ions]

Compound: CN(C)CCCN1c2ccccc2Sc2ccc(Cl)cc21 [chlorpromazine]
- competition with FAD for the binding to hDAAO apoprotein (hDAAO apoprotein [7]; ref Iwana et al., 2008, Sacchi et al.): compete with FAD

- effect on hDAAO activity (hDAAO [2]; 1 or 10 mM final concentration): do not modify
- effect on far-UV CD spectrum / protein conformation (hDAAO holoenzyme [12]): do not modify
Compound: [Mg+2] [magnesium ions]
